Measurements taken from article PMC6715681, “A high-throughput screen to identify novel synthetic lethal compounds for the treatment of E-cadherin-deficient cells” (Scientific Reports, 2019).
Marks after values point to notes of the source that are not given here.

How the values were obtained:
[1] = test system: MCF10A WT and MCF10A CDH1^−/− cells; test: Single-point confirmation screen (10 μM, CTB, 384-well), viability differential between isogenic lines; format: cell-based, human; settings: averaged between three biological replicates, Supplementary Table 2
Protocol: In the single-point confirmation screen, compounds that preferentially harm MCF10A CDH1^−/− cells compared to the wild-type cells were now identified. Three biological replicates were performed for each of the isogenic cell lines at a single-point (10 μM) in 384-well plates. All assay plates had acceptable Z’ values above 0.4 and 23 out of 48 plates had values above 0.6. The POC R^2 correlation between the three biological replicates for the two isogenic cell lines were all above 0.8 (data not shown). A cell viability differential of ‘MCF10A WT POC – MCF10A CDH1^−/− POC’ was used to select hits. An arbitrary threshold for the mean differential of >8.5% was chosen in order to maximize the number of hits being screened in the subsequent stages and to reduce false negatives.
To incorporate a measure of the variability between replicates of the screen into the hit selection process, a further requirement was included of a minimum of 2/3 biological replicates having viability differentials >8.5%. This removed a further 52 compounds shown in blue with only one out of three biological replicates crossing the Y = X-8.5 line independent of the mean. In total, 256 compounds were above the hit selection threshold, thereby preferentially killing E-cadherin negative cells. The mean POC differential of the 256 hits was 17.6% +/− 7.1 (+/−SD), with the highest being 48% for SLEC-1 (Synthetic Lethal E-Cadherin compound 1). […] The resulting 256 SL compounds were then assayed in an 11-point screen for EC50 determination.
(§1) MCF10A WT and MCF10A CDH1^−/− cells were seeded into Corning black walled, clear bottom 384-well plates (assay plates) using a multidrop 384 reagent dispenser (Thermo Fisher Scientific) and a total volume of 50 μL per well.
As we have shown MCF10A CDH1^−/− cells have a prolonged lag to log phase growth of around 24 hours, in order to achieve a similar confluence at 72 hours post seeding MCF10A WT and MCF10A CDH1^−/− cell lines were seeded at 600 cells/well and 800 cells/well, respectively. […] At 72 hours post seeding, plates were removed from the incubator and left for 30 minutes at RT to equalise the temperature across all wells of the plates and reduce fluorescence-based edge effects before reading on an EnVision (PerkinElmer) at 550 nm excitation and 590 nm emission to quantify cell viability.
The coRFU values were then used to calculate the normalized readouts of percent of controls (Eq. 3) and the robust Z score (Eqs 4,5), where doxorubicin refers to an EC80 dose and DMSO was 0.2% v/v.3 coPOC=100×(SamplecoRFU−x¯doxorubicincoRFU)/(x¯DMSOcoRFU−x¯doxorubicincoRFU) 4 MAD=median([…]) 5 CorrectedrobustZscore=(SamplecoRFU−platemediancoRFU)/MAD

MCF10A CDH1^−/− cells [2] = test: 11-point dose-response screen, cell titre blue (CTB) viability; format: cell-based, human; settings: for Differential at 20 μM: MCF10A WT – MCF10A CDH1−/− POC at 20 μM; for EC50: Homo sapiens, MCF-10A
Protocol: (§2) The 11-point dose-response screen evaluated a concentration range from 0.02 µM to 20 µM for both isogenic cell lines in duplicate biological replicates (Fig. 4). One limitation to metabolism-based cellular assays is that a change in read out (fluorescence, luminescence or absorbance) may not necessarily be caused by cell death and could instead result from a cessation of proliferation due to senescence or inhibited mitochondrial respiration. For this reason, a direct measurement of cell counts using cellular imaging of nuclei stained with Hoechst 33342 was also included at the 11-point screening stage. For the CTB 11-point screen all plates had acceptable Z’ values above 0.4, with the second biological replicate having 70% above 0.6 (Fig. 4A). The Z’ values for the high-content imaging (HCI) 11-point screen plates were above 0.4 for MCF10A WT, except one plate from biological replicate two with 0.396 (Fig. 4B). However, for MCF10A CDH1^−/− HCI data, only four plates were above a Z’ of 0.4 and the mean Z’ was 0.32 compared to a mean of 0.51 for MCF10A WT. A further quality metric known as the strictly standardized mean difference (SSMD)[40] is a less conservative approach for QC and a cut-off of >3 is generally used. The mean SSMD value was 7.04 for MCF10A WT and 5.27 for MCF10A CDH1^−/− plates and indicates the MCF10A CDH1^−/− HCI data was acceptable[41]. There was a good correlation between the top hits from the HCI and CTB 11-point screening with an overlap of 31 / 40 for the top 40 compounds selected from the eventual hit selection strategies.
as §1
(§3) As we have shown MCF10A CDH1^−/− cells have a prolonged lag to log phase growth of around 24 hours, in order to achieve a similar confluence at 72 hours post seeding MCF10A WT and MCF10A CDH1^−/− cell lines were seeded at 600 cells/well and 800 cells/well, respectively. Following seeding, plates were left for one hour at RT without stacking[46] and then centrifuged at 500 × g (RCF) for one minute. Plates were then transferred to an incubator at 37 °C and 5% CO2. At 24 hours post seeding, the MiniTrak robotic liquid handling system (Perkin Elmer) was used to transfer 352 compounds per 384-well library plate to the first 22 columns of a 384-well assay plate containing cells to achieve a 10 μM final compound concentration for the pilot, primary and single-point confirmation screens. For the 11-point dose-response screen, compounds were added to columns 1–22, but excluding edge rows A and P of the library plate to reduce edge-effects (Supplementary Fig. 2). The controls of DMSO (0.2% v/v), doxorubicin (EC80) and entinostat (EC50) were added into columns 23–24 of each assay plate (Supplementary Table 1). Cell titre blue[47] was made in-house in sterile PBS from 597 μM resazurin, 78 μM methylene blue, 1 mM potassium hexacyanoferrate (III) and 1 mM potassium hexacyanoferrate (II) trihydrate. At 69 hours post seeding, 16.7% v/v CTB was added to plates and they were incubated at 37 °C for 3 hours (Supplementary Fig. 1). At 72 hours post seeding, plates were removed from the incubator and left for 30 minutes at RT to equalise the temperature across all wells of the plates and reduce fluorescence-based edge effects before reading on an EnVision (PerkinElmer) at 550 nm excitation and 590 nm emission to quantify cell viability.
(§4) Supplementary Table 1. Killing control and SL control effective concentrations.
(§5) Doxorubicin EC80 0.3 µM 0.4 µM
(§6) MCF10A WT cells were seeded at 600/well and MCF10A CDH1-/- cells at 800/well in 384-well plates. Drugs
(§7) were added at 24 hours post seeding and CTB was used as an end-point assay. Concentrations were normalized

MCF10A WT cells [3] = test: as above; format: cell-based, human; settings: for EC50 / activity at 20 µM: Homo sapiens, MCF-10A; for activity at 20 µM: viability of WT cells at highest concentration 20 μM, read-out: MCF10A WT POC at 20 μM
Protocol: as §2, §1, §3, §4, §5, §6, §7

MCF10A CDH1^−/− cells [4] = test: 11-point dose-response screen, high-content imaging (HCI) of Hoechst 33342 nuclei; format: cell-based, human; settings: Homo sapiens, MCF-10A; 11-point screen, HCI
Protocol: as §2
(§8) A direct measurement of cell counts using cellular imaging of nuclei was also included at the 11-point screening stage. Plates were fixed, washed and stained using an ELx405 Select deep well washer (BioTek). Media was first aspirated leaving 10 μL/well, then 4% w/v PFA was added and plates left for 15 minutes at RT. Plates were then washed twice with PBS-T, before aspirating all permeabilization buffer and adding Hoechst 33342 (1 μg/mL final) in PBS. Plates were then stored in the dark at 4 °C, until being imaged on a BD Pathway 855. Two 10x images per well were taken and cell counts enumerated using CellProfiler[48].

MCF10A WT cells [5] = test: Medium-throughput validation in 96-well plates, Hoechst-33342 nuclei counts (CellProfiler); format: cell-based; settings: Homo sapiens, MCF-10A, 96-well validation, at least five concentration points
Protocol: (§9) Cells were seeded into each well of Corning’s black walled, clear bottom 96-well plates with a total volume of 100 μL per well. Edge wells were excluded. Both isogenic cell lines were seeded into the same plate to mitigate plate-to-plate variation. Plates for real-time analysis were transferred to the xCELLigence platform (ACEA Biosciences, USA) or the IncuCyte FLR imaging system (Essen BioScience, USA) as previously described.
(§10) Seventy-two hours post seeding (or 48 hours post compound addition), plates were assayed for cell viability using a one-step cocktail of PFA (0.25% v/v), saponin (0.075% w/v) and Hoechst 33342 (1 μg/ml final) as described previously. CellProfiler was used to enumerate cell counts as previously described.

MCF10A CDH1^−/− cells [6] = test: as above; format: cell-based, human; settings: for EC50 ratio (MCF10A WT/MCF10A CDH1^−/−) / EC50: 96-well validation; for EC50: Homo sapiens, MCF-10A, Hoechst nuclei counts, at least five concentration points; for Differential at 5 µM (%): normalized cell counts MCF10A WT – MCF10A CDH1^−/−, 96-well, 48 h post compound addition
Protocol: as §9, §10

MCF10A WT cells [7] = test: 11-point dose-response screen, high-content imaging (HCI) of Hoechst 33342 nuclei; format: cell-based; settings: Homo sapiens, MCF-10A, 11-point screen
Protocol: as §2, §8

[8] = 11-point screen (0.02–20 µM), CTB values, averaged between two biological replicates, Supplementary Table 2, read-out: MCF10A CDH1 -/- EC50
[9] = 11-point screen (0.02–20 µM), CTB values, two biological replicates, for EC50 values > 20, a value of 20 was used, read-out: MCF10A WT EC50
[10] = 11-point screen, CTB, read-out: MCF10A CDH1^-/- CTB EC50
[11] = killing control, 384-well, CTB, 11-point curve, 72 hrs post seeding

| SMILES | Differential at 1-pt [1] | Differential at 20 μM (MCF10A CDH1^−/− cells [2]; 11-point screen) | EC50 (MCF10A CDH1^−/− cells [2]; [8]) [µM] | EC50 (MCF10A WT cells [3]; [9]) [µM] | activity at 20 µM (MCF10A WT cells [3]; 11-point screen) [%] | EC50 (MCF10A CDH1^−/− cells [4]) [µM] | EC50 (MCF10A WT cells [5]) [µM] | EC50 ratio (MCF10A WT/MCF10A CDH1^−/−) (MCF10A CDH1^−/− cells [6]) | EC50 (MCF10A CDH1^−/− cells [6]) [µM] | Differential at 5 µM (%) (MCF10A CDH1^−/− cells [6]) | EC50 (MCF10A WT cells [7]) [µM] | EC50 (MCF10A CDH1^−/− cells [2]; [10]) [µM] | further results |
| --- | --- | --- | --- | --- | --- | --- | --- | --- | --- | --- | --- | --- | --- |
| COc1ccc2nccc(Nc3cccc(C(C)=O)c3)c2c1 [SLEC-2] | 39.99 | 49.66 | 3.21 | 17.7 | 42.3 |  |  |  |  |  |  |  |  |
| COc1ccc2nc(C)cc(NCC(=O)Nc3cccc(C)c3C)c2c1 [SLEC-12] | 13.92 | 65.85 |  | 19.4 | 45 | 2.45 | 13 | 1.45 | 8.98 | 11.47% | 12.6 | 3.06 | EC50 ratio between MCF10A WT and MCF10A CDH1^−/− cells (MCF10A CDH1^−/− cells [2]; 11-point screen, value corresponds to the CTB EC50s of Fig. 5): 6.34 fold change |
| COc1cccc2c1C(=O)c1c(O)c3c(c(O)c1C2=O)C[C@@](O)(C(=O)CO)C[C@@H]3O[C@H]1C[C@H](N)[C@H](O)[C@H](C)O1 [Doxorubicin, doxorubicin, reference compound] |  |  |  |  |  |  |  |  |  |  |  |  | EC80, MCF10A CDH1-/- (MCF10A CDH1^−/− cells [2]; [11]): 0.4 µM; EC80, MCF10A WT (MCF10A WT cells [3]; [11]): 0.3 µM |
| CCOc1ccc2nc(C)cc(SCC(O)C(=O)O)c2c1 (stereo not shown) [SLEC-20] | 23.81 | 70.17 | 9.38 | > 20 | 92.9 |  |  |  |  |  |  |  |  |
| Nc1ccccc1NC(=O)c1ccc(CNC(=O)OCc2cccnc2)cc1 [Entinostat, entinostat, reference compound] |  |  |  |  |  |  |  |  |  |  |  |  | EC50 (MCF10A CDH1^−/− cells [2]; SL control, 384-well, CTB, 11-point curve, 72 hrs post seeding, read-out: EC50, MCF10A CDH1-/-): 2.4 µM; EC50 (MCF10A WT cells [3]; SL control, 384-well, CTB, 11-point curve, 72 hrs post seeding, read-out: EC50, MCF10A WT): 3.2 µM |
| COc1cc(Cl)c(C)cc1NC(=O)c1ccc(CN2CCCC2)cc1 [SLEC-6] |  |  |  |  |  | 7.79 | 22.6 | 1.56 | 14.5 | 20.78* % | > 20 | 17.3 | EC50 (MCF10A WT cells [3]; 11-point screen, CTB, read-out: MCF10A WT CTB EC50): > 20 µM |
